Reference: patent publication US10988523B2, “Modified lipidated Relaxin B chain peptides and their therapeutic use” (Sanofi, priority 2018, dated 2021)
*1 amine or outer side, *2 acyl side, *3 side chain or, on linkers, in order; H or OH if unused. Where a SMILES comes first, the peptide text is derived from it. Side-chain parts run from the residue outwards. [ ]: non-standard residue; d: D form. The star is where a group is joined. γGlu = O=C(O)[C@H](CCC(=O)[*:2])N[*:1]; Arg(Me) = CNC(=N)NCCC[C@H](N)C(=O)O; Stearoyl = CCCCCCCCCCCCCCCCCC(=O)*; Palmitoyl = CCCCCCCCCCCCCCCC(=O)*; αMeK = C[C@](N)(CCCCN)C(=O)O; Nle = CCCC[C@H](N)C(=O)O; AEEA = NCCOCCOCC(=O)O; Aib = CC(C)(N)C(=O)O

Molecular target: T1, RXFP1 (Homo sapiens, UniProt Q9HBX9)
T1 construct: OVCAR5 cells expressing endogenous RXFP1; endogenous in cells; host or cells: OVCAR5 cells
T1 sequence (Q9HBX9 1-757): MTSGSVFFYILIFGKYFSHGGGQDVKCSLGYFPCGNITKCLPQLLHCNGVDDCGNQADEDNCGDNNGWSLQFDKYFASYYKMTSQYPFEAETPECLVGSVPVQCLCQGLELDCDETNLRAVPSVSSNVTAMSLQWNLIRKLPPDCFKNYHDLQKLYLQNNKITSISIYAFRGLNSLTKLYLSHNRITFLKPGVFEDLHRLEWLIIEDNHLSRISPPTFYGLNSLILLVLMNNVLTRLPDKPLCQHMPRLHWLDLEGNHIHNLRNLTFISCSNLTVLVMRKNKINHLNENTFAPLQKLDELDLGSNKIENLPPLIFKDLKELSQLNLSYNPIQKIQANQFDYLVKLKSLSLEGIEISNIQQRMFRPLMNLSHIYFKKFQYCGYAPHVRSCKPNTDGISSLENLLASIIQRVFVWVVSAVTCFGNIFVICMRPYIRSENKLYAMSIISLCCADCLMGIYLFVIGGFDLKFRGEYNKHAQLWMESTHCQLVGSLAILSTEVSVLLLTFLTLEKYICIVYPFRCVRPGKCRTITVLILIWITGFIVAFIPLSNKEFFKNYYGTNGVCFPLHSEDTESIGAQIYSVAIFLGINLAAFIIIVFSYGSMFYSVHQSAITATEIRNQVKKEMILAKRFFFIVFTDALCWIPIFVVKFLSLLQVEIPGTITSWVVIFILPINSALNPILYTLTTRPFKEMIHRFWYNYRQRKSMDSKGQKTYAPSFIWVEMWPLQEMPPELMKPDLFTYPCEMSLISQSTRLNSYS
Assay: OVCAR5 cAMP assay (HTRF), RXFP1 agonist activity
Assay type: cell-based
Conditions: for EC50: OVCAR5 cells, cAMP HTRF, read-out: EC50 (nM), OVCAR 5 cells (cAMP); for Emax: OVCAR-5, maximal cAMP relative to H2-relaxin maximum (100%), read-out: EMax, OVCAR 5 cells (cAMP)
Summary of the method: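 OVCAR5 cells (endogenous RXFP1) pretreated 40 min at 37° C with 1 mM IBMX, then exposed to peptides in serum-free medium for 30 min at 37° C. Lysate cAMP read by HTRF; EC50 from variable-slope sigmoidal fit; Emax as % of H2-relaxin maximal cAMP in same run.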

EC50 [nM] | Emax [%] | SMILES
0.14 | 87 | CCCCCCCCCCCCCCCCCC(=O)N[C@@H](CCC(=O)N[C@@H](CCC(=O)N[C@@H](CCC(=O)NCCOCCOCC(=O)NCCOCCOCC(=O)NCCOCCOCC(=O)NCCOCCOCC(=O)NCCOCCOCC(=O)NCCCC[C@H](NC(=O)[C@H](CCCCN)NC(=O)[C@H](CCCCN)NC(=O)[C@H](CCCNC(=N)N)NC(=O)C(C)(C)NC(=O)[C@H](CO)NC(=O)[C@H](Cc1c[nH]c2ccccc12)NC(=O)[C@@H](NC(=O)[C@H](CO)NC(=O)[C@H](CCCC)NC(=O)CNC(=O)[C@H](CCC(=O)O)NC(=O)C(C)(C)NC(=O)C(C)(C)NC(=O)[C@@H](NC(=O)[C@H](CCC(N)=O)NC(=O)[C@H](C)NC(=O)[C@H](CCCNC(=N)N)NC(=O)[C@@H](NC(=O)[C@H](CCCCN)NC(=O)[C@H](CCC(=O)O)NC(=O)[C@H](CCCNC(=N)N)NC(=O)CNC(=O)[C@H](CCC(=O)O)NC(=O)[C@H](CC(C)C)NC(C)=O)C(C)C)[C@@H](C)CC)[C@@H](C)O)C(N)=O)C(=O)O)C(=O)O)C(=O)O [compound 93] (Ac-LEGREKVRAQI[Aib][Aib]EG[Nle]STWS[Aib]RKKK([AEEA-AEEA-AEEA-AEEA-AEEA-γGlu-γGlu-γGlu-Stearoyl])-NH2)
0.07 | 89 | CCCCCCCCCCCCCCCCCC(=O)N[C@@H](CCC(=O)N[C@@H](CCC(=O)N[C@@H](CCC(=O)NCCOCCOCC(=O)NCCOCCOCC(=O)NCCOCCOCC(=O)NCCOCCOCC(=O)NCCCC[C@H](NC(=O)[C@H](CCCCNC(C)=O)NC(=O)[C@H](CCCCN)NC(=O)[C@H](CCCNC(=N)N)NC(=O)C(C)(C)NC(=O)[C@H](CO)NC(=O)[C@H](Cc1c[nH]c2ccccc12)NC(=O)[C@@H](NC(=O)[C@H](CO)NC(=O)[C@H](CCCC)NC(=O)CNC(=O)[C@H](CCC(=O)O)NC(=O)C(C)(C)NC(=O)C(C)(C)NC(=O)[C@@H](NC(=O)[C@H](CCCCNC(C)=O)NC(=O)[C@H](C)NC(=O)[C@H](CCCNC(=N)N)NC(=O)[C@@H](NC(=O)[C@H](CCCCN)NC(=O)[C@H](CCC(=O)O)NC(=O)[C@H](CCCNC(=N)N)NC(=O)CNC(=O)[C@H](CCC(=O)O)NC(=O)[C@H](CC(C)C)NC(C)=O)C(C)C)[C@@H](C)CC)[C@@H](C)O)C(N)=O)C(=O)O)C(=O)O)C(=O)O [compound 90] (Ac-LEGREKVRAK(Ac)I[Aib][Aib]EG[Nle]STWS[Aib]RKK(Ac)K([AEEA-AEEA-AEEA-AEEA-γGlu-γGlu-γGlu-Stearoyl])-NH2)
0.05 | 100 | CCCCCCCCCCCCCCCC(=O)N[C@@H](CCC(=O)N[C@@H](CCC(=O)NCCCC[C@H](NC(=O)CC[C@H](NC(=O)CC[C@H](NC(=O)COCCOCCNC(=O)COCCOCCNC(=O)COCCOCCNC(=O)COCCOCCNC(=O)[C@H](CCCCNC(C)=O)NC(=O)[C@H](C)NC(=O)[C@H](CCCNC(=N)N)NC(=O)[C@](C)(CCCCN)NC(=O)[C@H](CO)NC(=O)[C@H](Cc1ccccc1)NC(=O)[C@@H](NC(=O)[C@H](CO)NC(=O)[C@H](CCC(N)=O)NC(=O)CNC(=O)[C@H](CCC(=O)O)NC(=O)C(C)(C)NC(=O)C(C)(C)NC(=O)[C@@H](NC(=O)[C@H](CCCCNC(C)=O)NC(=O)[C@H](C)NC(=O)[C@H](CCCNC(=N)N)NC(=O)[C@@H](NC(=O)[C@H](CCCCN)NC(=O)[C@H](CCC(=O)O)NC(=O)[C@H](CCCNC(=N)N)NC(=O)CNC(=O)[C@H](CCC(=O)O)NC(=O)[C@H](CC(C)C)NC(C)=O)C(C)C)[C@@H](C)CC)[C@@H](C)O)C(=O)O)C(=O)O)C(N)=O)C(=O)O)C(=O)O [compound 185] (Ac-LEGREKVRAK(Ac)I[Aib][Aib]EGQSTFS[αMeK]RAK(Ac)[AEEA][AEEA][AEEA][AEEA][γGlu][γGlu]K([γGlu-γGlu-Palmitoyl])-NH2)
 | 94 | CCCCCCCCCCCCCCCC(=O)N[C@@H](CCC(=O)N[C@@H](CCC(=O)N[C@@H](CCC(=O)NCCCC[C@H](NC(=O)COCCOCCNC(=O)COCCOCCNC(=O)COCCOCCNC(=O)COCCOCCNC(=O)[C@H](CCCCNC(C)=O)NC(=O)[C@H](CCCCN)NC(=O)[C@H](CCCNC(=N)N)NC(=O)C(C)(C)NC(=O)[C@H](CO)NC(=O)[C@H](Cc1ccccc1)NC(=O)[C@@H](NC(=O)[C@H](CO)NC(=O)[C@H](CCCC)NC(=O)CNC(=O)[C@H](CCC(=O)O)NC(=O)C(C)(C)NC(=O)C(C)(C)NC(=O)[C@@H](NC(=O)[C@H](CCCCNC(C)=O)NC(=O)[C@H](C)NC(=O)[C@H](CCCNC(=N)N)NC(=O)[C@@H](NC(=O)[C@H](CCCCN)NC(=O)[C@H](CCC(=O)O)NC(=O)[C@H](CCCNC(=N)N)NC(=O)CNC(=O)[C@H](CCC(=O)O)NC(=O)[C@H](CC(C)C)NC(C)=O)C(C)C)[C@@H](C)CC)[C@@H](C)O)C(N)=O)C(=O)O)C(=O)O)C(=O)O [compound 144] (Ac-LEGREKVRAK(Ac)I[Aib][Aib]EG[Nle]STFS[Aib]RKK(Ac)[AEEA][AEEA][AEEA][AEEA]K([γGlu-γGlu-γGlu-Palmitoyl])-NH2)
 | 89 | CCCCCCCCCCCCCCCC(=O)N[C@@H](CCC(=O)N[C@@H](CCC(=O)N[C@@H](CCC(=O)NCCCC[C@H](NC(=O)COCCOCCNC(=O)COCCOCCNC(=O)[C@H](CCCCN)NC(=O)[C@H](CCCNC(=N)N)NC(=O)C(C)(C)NC(=O)[C@H](CO)NC(=O)[C@H](Cc1c[nH]c2ccccc12)NC(=O)[C@@H](NC(=O)[C@H](CO)NC(=O)[C@H](CCCC)NC(=O)CNC(=O)[C@H](CCC(=O)O)NC(=O)C(C)(C)NC(=O)C(C)(C)NC(=O)[C@@H](NC(=O)[C@H](CCC(N)=O)NC(=O)[C@H](C)NC(=O)[C@H](CCCNC(=N)N)NC(=O)[C@@H](NC(=O)[C@H](CCCCN)NC(=O)[C@H](CCC(=O)O)NC(=O)[C@H](CCCNC(=N)N)NC(=O)CNC(=O)[C@H](CCC(=O)O)NC(=O)[C@H](CC(C)C)NC(C)=O)C(C)C)[C@@H](C)CC)[C@@H](C)O)C(N)=O)C(=O)O)C(=O)O)C(=O)O [compound 11] (Ac-LEGREKVRAQI[Aib][Aib]EG[Nle]STWS[Aib]RK[AEEA][AEEA]K([γGlu-γGlu-γGlu-Palmitoyl])-NH2)
 | 100 | CCCCCCCCCCCCCCCC(=O)N[C@@H](CCC(=O)NCCCC[C@H](NC(=O)[C@H](CCCCN)NC(=O)[C@H](CCCNC(=N)N)NC(=O)C(C)(C)NC(=O)[C@H](CO)NC(=O)[C@H](Cc1c[nH]c2ccccc12)NC(=O)[C@@H](NC(=O)[C@H](CO)NC(=O)[C@H](CCCC)NC(=O)CNC(=O)[C@H](CCC(=O)O)NC(=O)C(C)(C)NC(=O)C(C)(C)NC(=O)[C@@H](NC(=O)[C@H](CCC(N)=O)NC(=O)[C@H](C)NC(=O)[C@H](CCCNC(=N)N)NC(=O)[C@@H](NC(=O)[C@H](CCCCN)NC(=O)[C@H](CCC(=O)O)NC(=O)[C@H](CCCNC(=N)N)NC(=O)CNC(=O)[C@H](CCC(=O)O)NC(=O)[C@H](CC(C)C)NC(C)=O)C(C)C)[C@@H](C)CC)[C@@H](C)O)C(N)=O)C(=O)O [compound 2] (Ac-LEGREKVRAQI[Aib][Aib]EG[Nle]STWS[Aib]RKK([γGlu-Palmitoyl])-NH2)
 | 97 | CCCCCCCCCCCCCCCC(=O)N[C@@H](CCC(=O)NCCOCCOCC(=O)NCCCC[C@H](NC(=O)[C@H](CCCCN)NC(=O)[C@H](CCCNC(=N)N)NC(=O)C(C)(C)NC(=O)[C@H](CO)NC(=O)[C@H](Cc1c[nH]c2ccccc12)NC(=O)[C@@H](NC(=O)[C@H](CO)NC(=O)[C@H](CCCC)NC(=O)CNC(=O)[C@H](CCC(=O)O)NC(=O)C(C)(C)NC(=O)C(C)(C)NC(=O)[C@@H](NC(=O)[C@H](CCC(N)=O)NC(=O)[C@H](C)NC(=O)[C@H](CCCNC(=N)N)NC(=O)[C@@H](NC(=O)[C@H](CCCCN)NC(=O)[C@H](CCC(=O)O)NC(=O)[C@H](CCCNC(=N)N)NC(=O)CNC(=O)[C@H](CCC(=O)O)NC(=O)[C@H](CC(C)C)NC(C)=O)C(C)C)[C@@H](C)CC)[C@@H](C)O)C(N)=O)C(=O)O [compound 53] (Ac-LEGREKVRAQI[Aib][Aib]EG[Nle]STWS[Aib]RKK([AEEA-γGlu-Palmitoyl])-NH2)
0.14 | 90 | CCCCCCCCCCCCCCCC(=O)N[C@@H](CCC(=O)NCCCC[C@H](NC(=O)CC[C@H](NC(=O)CC[C@H](NC(=O)CC[C@H](NC(=O)COCCOCCNC(=O)COCCOCCNC(=O)COCCOCCNC(=O)COCCOCCNC(=O)[C@H](CCCCNC(C)=O)NC(=O)[C@H](C)NC(=O)[C@H](CCCNC(=N)NC)NC(=O)[C@](C)(CCCCN)NC(=O)[C@H](CO)NC(=O)[C@H](Cc1ccccc1)NC(=O)[C@@H](NC(=O)[C@H](CO)NC(=O)[C@H](CCCC)NC(=O)CNC(=O)[C@H](CCC(=O)O)NC(=O)C(C)(C)NC(=O)C(C)(C)NC(=O)[C@@H](NC(=O)[C@H](CCCCNC(C)=O)NC(=O)[C@H](C)NC(=O)[C@H](CCCNC(=N)N)NC(=O)[C@@H](NC(=O)[C@H](CCCCN)NC(=O)[C@H](CCC(=O)O)NC(=O)[C@H](CCCNC(=N)N)NC(=O)CNC(=O)[C@H](CCC(=O)O)NC(=O)[C@H](CC(C)C)NC(C)=O)C(C)C)[C@@H](C)CC)[C@@H](C)O)C(=O)O)C(=O)O)C(=O)O)C(N)=O)C(=O)O [compound 151] (Ac-LEGREKVRAK(Ac)I[Aib][Aib]EG[Nle]STFS[αMeK][Arg(Me)]AK(Ac)[AEEA][AEEA][AEEA][AEEA][γGlu][γGlu][γGlu]K([γGlu-Palmitoyl])-NH2)
